Reference: ChEMBL document CHEMBL4373720, “Discovery of Conformationally Restricted Human Glutaminyl Cyclase Inhibitors as Potent Anti-Alzheimer's Agents by Structure-Based Design” (J Med Chem, 2019)
Active and inactive are the calls of the source. The rule behind the calls is not given here.

How the values were obtained:
Mus musculus [1] = species: Mus musculus; settings: ICR, 25 mg/kg
[2] = Cytotoxicity against mouse HT22 cells assessed as cell viability at 10 uM measured after 18 hrs by MTT assay relative to control; format: cell-based, HT-22; settings: read-out: Activity
hERG (KCNH2) = hERG (KCNH2) (Homo sapiens, UniProt Q12809); experiment: Displacement of tracer red from human ERG at 10 uM by fluorescence polarization assay relative to control; settings: probe tracer red
Mus musculus [3] = species: Mus musculus; experiment: animal or person; settings: ICR, central, 24 h, read-out: INH
[4] = Stability in human liver microsomes assessed as parent compound remaining measured after 30 mins; format: ADME, Microsome; settings: read-out: Stability
Mus musculus [5] = experiment: Neuroprotection in human amyloid beta (3 to 40 residues)-induced ICR mouse model of Alzheimer's disease assessed as inhibition of human amyloid beta N3pE-40 level in brain at 25 mg/kg, ip measured after 24 hrs by sandwich ELISA relative to control; format: functional
[6] = Stability in mouse liver microsomes assessed as parent compound remaining measured after 30 mins; format: ADME, Microsome; settings: read-out: Stability

Chain of hERG (KCNH2) (Q12809 whole entry): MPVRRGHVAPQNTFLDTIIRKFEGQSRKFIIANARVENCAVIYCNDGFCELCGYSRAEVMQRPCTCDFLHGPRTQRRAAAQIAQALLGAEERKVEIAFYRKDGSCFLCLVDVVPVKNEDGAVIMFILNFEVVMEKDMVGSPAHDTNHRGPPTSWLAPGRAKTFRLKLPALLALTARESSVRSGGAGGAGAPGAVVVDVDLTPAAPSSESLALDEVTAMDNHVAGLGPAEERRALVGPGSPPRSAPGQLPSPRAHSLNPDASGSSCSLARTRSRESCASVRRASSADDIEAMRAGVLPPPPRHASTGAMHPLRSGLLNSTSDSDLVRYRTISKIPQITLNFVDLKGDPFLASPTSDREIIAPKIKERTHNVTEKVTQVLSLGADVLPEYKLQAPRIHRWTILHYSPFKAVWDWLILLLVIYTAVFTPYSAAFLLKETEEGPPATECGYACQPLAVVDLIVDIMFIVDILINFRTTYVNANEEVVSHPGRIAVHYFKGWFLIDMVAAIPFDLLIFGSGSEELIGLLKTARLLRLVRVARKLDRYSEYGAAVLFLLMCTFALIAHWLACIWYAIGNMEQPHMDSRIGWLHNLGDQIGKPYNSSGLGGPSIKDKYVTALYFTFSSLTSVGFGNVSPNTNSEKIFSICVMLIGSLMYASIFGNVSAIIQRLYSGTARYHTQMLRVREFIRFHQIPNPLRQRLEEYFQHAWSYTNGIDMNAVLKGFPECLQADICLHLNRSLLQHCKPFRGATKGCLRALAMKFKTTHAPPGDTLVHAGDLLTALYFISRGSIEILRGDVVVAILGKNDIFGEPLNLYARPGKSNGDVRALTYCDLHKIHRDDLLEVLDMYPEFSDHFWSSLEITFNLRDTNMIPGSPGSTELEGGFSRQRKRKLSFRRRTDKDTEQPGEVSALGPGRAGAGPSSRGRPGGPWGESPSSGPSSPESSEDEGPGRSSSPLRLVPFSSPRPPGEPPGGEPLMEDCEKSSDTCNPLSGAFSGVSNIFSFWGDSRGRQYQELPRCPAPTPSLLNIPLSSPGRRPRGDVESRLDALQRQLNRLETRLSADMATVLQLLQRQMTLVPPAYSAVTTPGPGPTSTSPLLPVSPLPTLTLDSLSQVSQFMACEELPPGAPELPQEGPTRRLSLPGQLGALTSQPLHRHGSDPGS

Row | Structure (SMILES) | inhibition (Mus musculus [1]) | viability at 18 h, 10 µM [2] [%] | inhibition at 10 µM (hERG (KCNH2)) [%] | inhibition in vivo at 25 mg/kg (Mus musculus [3]) [%] | remaining at 0.5 h [4] [%] | inhibition in vivo at 25 mg/kg (Mus musculus [5]) [%] | remaining at 0.5 h [6] [%]
1 | COc1ccc(N(Cc2ccc(F)cc2)C(=O)NCCCn2cncc2C)cc1OC | inactive | 90.7 | 40.6 | – | – | – | –
2 | COc1ccc(N(Cc2ccncc2)C(=S)NCCCn2cncc2C)cc1OC | – | 100 | 32.3 | 11.6 | – | – | –
3 | COc1ccc(N(Cc2cccc(Cl)c2)C(=S)NCCCn2cncc2C)cc1OC | inactive | 88.2 | 86 | – | – | – | –
4 | COc1ccc(N(C(=S)NCCCn2cncc2C)C2CCC2)cc1OC | inactive | 86.7 | 11.5 | – | – | – | –
5 | COc1ccc(N(CC2CCCC2)C(=S)NCCCn2cncc2C)cc1OC | – | 100 | 60 | 2.96 | – | – | –
6 | COc1ccc(N(CC(C)C)C(=O)NCCCn2cncc2C)cc1OC | inactive | 100 | 23.7 | – | – | – | –
7 | COc1ccc(N(CCCCc2ccnc(N)c2)C(=O)NCCCn2cncc2C)cc1OC | – | 100 | 48 | 24.4 | 43.1 | 22.7 | 21.6
8 | COc1ccc(N(C(=S)NCCCn2cncc2C)C(C)C)cc1OC | – | 100 | 46.3 | 6 | – | – | –
9 | COc1ccc(N(Cc2ccc(F)cc2)C(=S)NCCCn2cncc2C)cc1OC | inactive | 100 | 83.5 | – | – | – | –
10 | COc1ccc(N(Cc2cccnc2)C(=O)NCCCn2cncc2C)cc1OC | – | 100 | 33.2 | 26 | 44 | 22.9 | 12.8
11 | COc1ccc(N(Cc2cccc(F)c2)C(=S)NCCCn2cncc2C)cc1OC | – | 91.7 | 77.6 | 6.66 | – | – | –
12 | COc1ccc(N(CC(C)C)C(=S)NCCCn2cncc2C)cc1OC | inactive | 100 | 39.9 | – | – | – | –
13 | COc1ccc(N(C(=S)NCCCn2cncc2C)C2CCCC2)cc1OC | – | 81.7 | 31.8 | 1.17 | – | – | –
14 | COc1ccc(N(CC2CCCC2)C(=O)NCCCn2cncc2C)cc1OC | – | 100 | 29.6 | 2.96 | – | – | –
15 | COc1ccc(N(C(=O)NCCCn2cncc2C)C2CCCCC2)cc1OC | inactive | 88.6 | 12.2 | – | – | – | –
16 | CCN(C(=S)NCCCn1cncc1C)c1ccc(OC)c(OC)c1 | inactive | 88.4 | – | – | – | – | –
17 | COc1ccc(N(Cc2cccnc2)C(=S)NCCCn2cncc2C)cc1OC | – | 89.3 | 34.5 | 5.31 | – | – | –
18 | COc1ccc(N(Cc2ccccc2)C(=S)NCCCn2cncc2C)cc1OC | – | 80.4 | 71.5 | 15.3 | – | – | –
19 | COc1ccc(N(Cc2ccc(Cl)cc2)C(=S)NCCCn2cncc2C)cc1OC | – | 100 | 86.8 | 0.73 | – | – | –
20 | COc1ccc(N(C(=S)NCCCn2cncc2C)C2CCCCC2)cc1OC | – | 78.3 | 59.4 | 4.01 | – | – | –
21 | COc1ccc(N(CCCCc2ccnc(NCCN)c2)C(=O)NCCCn2cncc2C)cc1OC | – | 82.2 | 40.8 | 13.7 | – | – | –
